Laboratory results: EP4159720A1, “NONSYMMETRIC SUBSTITUTED 1,1'-BIPHENYL DERIVATIVES AND USES THEREOF” (Recepton Spolka z Ograniczona Odpowiedzialnoscia, priority 2021, dated 2023)
Where a name gives a salt, the structure may show the parent alone.

Experiments:
[1] = molecular target: T1, hPD-1 (50 nM) and hPD-L1 (5 nM) protein complex (Homo sapiens, UniProt Q9NZQ7); test: Homogenous Time Resolved Fluorescence (HTRF) assay, Cisbio kit 64ICP01PEG; format: binding; details: activity range from Hill curve fit; 1 h incubation at room temperature; TR-FRET; three independent measurements
T1 construct: purchased Cisbio 64ICP01PEG
Description: The biological activity of the compounds described in the previous section was tested by the Homogenous Time Resolved Fluorescence (HTRF) method. Determination was carried out with the use of putty from the Cisbio company (catalog number 64ICP01PEG) in the 20 µL format using the protocol from the manufacturer. Compounds in the concentration range allowing determination of biological activity from the inflection curve were added to the hPD-1 (50 nM) and hPD-L1 (5 nM) protein complex with antibodies and allowed to incubate for one hour at room temperature before measuring Forster resonant energy transfer (TR-FRET) on a Tecan Spark 20M instrument. The results were normalized to a positive control (complex without inhibitor) and negative control (no hPD-1), averaged from three independent measurements and fitted with a Hill curve.
Ranges of activity of the tested compounds: "very good" (+++) below 20 nM, "moderate" (++) - 20-50 nM and "low" (+) - 50 nM - 1 µM.

[2] = molecular target: T2, PD-1/PD-L1 interaction (Homo sapiens, UniProt Q9NZQ7); test: PD-1/PD-L1 Blockade Bioassay (Promega J1252; NFAT cellular assay); format: cell-based; details: PD-1 Effector Jurkat cells co-cultured with PD-L1 aAPC/CHO-K1 cells for 6 h; NFAT-RE luminescence; three replications
T2 construct: host or cells: PD-L1 aAPC/CHO-K1 cells; PD-1 Effector Jurkat T cells
Description: The potency of blocking the PD-1/PD-L1 pathway was assessed using the PD-1/PD-L1 Blockade Bioassay (Promega, cat. J1252). This assay relies on two genetically engineered cell lines: PD-1 Effector cells (Jurkat T cells expressing human PD-1 and luciferase driven by NFAT response element) and PD-L1 aAPC/CHO-K1 cells (CHO-K1 cells expressing human PD-L1 and cell surface protein designed to activate cognate T-cell Receptors in an antigen-independent manner). When the two cell types are co-cultured, the PD-1/PD-L1 interaction inhibits TCR signaling and NFAT-RE-mediated luminescence. Addition of either an anti-PD-1 or anti-PD-L1 antibody that blocks the PD-1/PD-L1 interaction releases the inhibitory signal and leads to TCR activation and the NFAT-RE-mediated luminescence, which is then measured on a microplate reader. The assay was performed according to the manufacturer's manual. PD-L1 aAPC/CHO-K1 cells were plated in 96-well, white, flat bottom assay plates at […] cells in 100 µL of medium (Ham's F12, 10% FBS) and incubated overnight at 37°C, 5% CO2. The next day, the medium was removed from the assay plate and serially diluted compounds as listed in table 1 were added at 40 µL per well in the assay buffer (RPMI1640 + 1% FBS + 0,5% DMSO). Next, PD-1 Effector Jurkat cells were resuspended in the assay buffer (RPMI 1640 + 1% FBS) at a concentration of 1,25 × 10^6 cells/mL and added to the assay plate at 40 µL per well (total of […]). The cells were co-cultured for 6 h (37°C, 5% CO2) and then removed from the incubator and equilibrated for 5 min at room temperature. The Bio-GloTM Reagent (Promega, cat. G7941) was prepared according to the manufacturer's instructions and added to each well at 80 µL per well. The results were baseline-corrected to non-treated controls, averaged from three replications and fitted with a 4-parameters variable slope.

T2 sequence (Q9NZQ7 19-290): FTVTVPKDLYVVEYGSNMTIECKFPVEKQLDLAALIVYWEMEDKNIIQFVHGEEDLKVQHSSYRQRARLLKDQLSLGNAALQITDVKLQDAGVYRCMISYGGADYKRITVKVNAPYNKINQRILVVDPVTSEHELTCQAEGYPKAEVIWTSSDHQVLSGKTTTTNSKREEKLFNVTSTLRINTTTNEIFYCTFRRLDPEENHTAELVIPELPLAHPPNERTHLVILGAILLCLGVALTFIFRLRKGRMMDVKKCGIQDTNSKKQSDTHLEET
T1 sequence (Q9NZQ7 19-238 limits assumed, one chain of several): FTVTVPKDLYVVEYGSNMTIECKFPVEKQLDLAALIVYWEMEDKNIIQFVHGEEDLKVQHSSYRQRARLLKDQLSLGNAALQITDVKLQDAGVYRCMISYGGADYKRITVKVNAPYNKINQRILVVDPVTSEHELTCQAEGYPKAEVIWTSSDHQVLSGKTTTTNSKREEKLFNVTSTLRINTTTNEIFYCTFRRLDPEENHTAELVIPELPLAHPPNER

SMILES | IC50 [1] | EC50 [2]
COc1cc(C(=O)Nc2cccc(-c3cccc(NC(=O)c4cc(OC)c(CN[C@@H]5CCC[C@H]5O)cn4)c3C)c2C)ncc1CNC(CO)CO [Compound R1_C445, 5-(((1,3-dihydroxypropan-2-yl)amino)methyl)-N-(3'-(5-((((1R,2R)-2-hydroxycyclopentyl)amino)methyl)-4-methoxypicolinamido)-2,2'-dimethyl-[1,1'-biphenyl]-3-yl)-4-methoxypicolinamide] | < 20 nM | 150 nM
COc1cc(C(=O)Nc2cccc(-c3cccc(NC(=O)c4ccc(CN(C)CCO)cn4)c3C)c2C)ncc1CN(C)CCO [Compound R1_C450, 5-(((2-hydroxyethyl)(methyl)amino)methyl)-N-(3'-(5-(((2-hydroxyethyl)(methyl)amino)methyl)picolinamido)-2,2'-dimethyl-[1,1'-biphenyl]-3-yl)-4-methoxypicolinamide] | < 20 nM | 206 nM
COc1cc(C(=O)Nc2cccc(-c3cccc(NC(=O)c4ccc(CN(C)CCO)cn4)c3C)c2C)ncc1CN[C@@H]1CCC[C@H]1O [Compound R1_C451, 5-((((1R,2R)-2-hydroxycyclopentyl)amino)methyl)-N-(3'-(5-(((2-hydroxyethyl)(methyl)amino)methyl)picolinamido)-2,2'-dimethyl-[1,1'-biphenyl]-3-yl)-4-methoxypicolinamide] | < 20 nM | 68 nM
COc1cc(C(=O)Nc2cccc(-c3cccc(NC(=O)c4ccc(CN(C)CCO)cn4)c3C)c2C)ncc1CN[C@@H]1CCC[C@H]1O [Compound R1_C451_1, 5-((((1R,2R)-2-hydroxycyclopentyl)amino)methyl)-N-(3'-(5-(((2-hydroxyethyl)(methyl)amino)methyl)picolinamido)-2,2'-dimethyl-[1,1'-biphenyl]-3-yl)-4-methoxypicolinamide trihydrochloride] |  | 234 nM
COc1cc(C(=O)Nc2cccc(-c3cccc(NC(=O)c4cc(OC)c(CN[C@@H](C)CO)cn4)c3C)c2C)ncc1CNCCCO [Compound R1_C453, (S)-5-(((1-hydroxypropan-2-yl)amino)methyl)-N-(3'-(5-(((3-hydroxypropyl)amino)methyl)-4-methoxypicolinamido)-2,2'-dimethyl-[1,1'-biphenyl]-3-yl)-4-methoxypicolinamide] | < 20 nM | 143 nM
COc1cc(C(=O)Nc2cccc(-c3cccc(NC(=O)c4ccc(CN(C)CCO)cn4)c3C)c2C)ncc1CN[C@@H](C)CO [Compound R1_C458, (S)-N-(3'-(5-(((2-hydroxyethyl)(methyl)amino)methyl)picolinamido)-2,2'-dimethyl-[1,1'-biphenyl]-3-yl)-5-(((1-hydroxypropan-2-yl)amino)methyl)-4-methoxypicolinamide] | < 20 nM | 159 nM

The remaining lines, values ahead:

IC50 [1] | EC50 [2] | SMILES
< 20 nM | 44.6 nM | COc1cc(C(=O)Nc2cccc(-c3cccc(NC(=O)c4cc(OC)c(CN[C@@H](C)CO)cn4)c3C)c2C)ncc1CN[C@H]1CCC[C@@H]1O [Compound R1_C428, 5-((((1S,2S)-2-hydroxycyclopentyl)amino)methyl)-N-(3'-(5-((((S)-1-hydroxypropan-2-yl)amino)methyl)-4-methoxypicolinamido)-2,2'-dimethyl-[1,1'-biphenyl]-3-yl)-4-methoxypicolinamide]
< 20 nM | 176 nM | COc1cc(C(=O)Nc2cccc(-c3cccc(NC(=O)c4cc(OC)c(CN(C)CCO)cn4)c3C)c2C)ncc1CN[C@@H](C)CO [Compound R1_C441, (S)-5-(((2-hydroxyethyl)(methyl)amino)methyl)-N-(3'-(5-(((1-hydroxypropan-2-yl)amino)methyl)-4-methoxypicolinamido)-2,2'-dimethyl-[1,1'-biphenyl]-3-yl)-4-methoxypicolinamide]
< 20 nM | 205 nM | COc1cc(C(=O)Nc2cccc(-c3cccc(NC(=O)c4cc(OC)c(CN[C@@H](C)CO)cn4)c3C)c2C)ncc1CNC(CO)CO [Compound R1_C446, (S)-5-(((1,3-dihydroxypropan-2-yl)amino)methyl)-N-(3'-(5-(((1-hydroxypropan-2-yl)amino)methyl)-4-methoxypicolinamido)-2,2'-dimethyl-[1,1'-biphenyl]-3-yl)-4-methoxypicolinamide]
50 to 1000 nM | 480 nM | COc1cc(C(=O)Nc2cccc(-c3cccc(NC(=O)c4cc(OC)c(CNCCCO)cn4)c3C)c2C)ncc1CNCCO [Compound R1_C454, 5-(((2-hydroxyethyl)amino)methyl)-N-(3'-(5-(((3-hydroxypropyl)amino)methyl)-4-methoxypicolinamido)-2,2'-dimethyl-[1,1'-biphenyl]-3-yl)-4-methoxypicolinamide]
